Experimental data published in patent publication US9096524B2, “Anthelmintic agents and their use” (Intervet International B.V., priority 2009, dated 2015).
Where two headings read alike, the source gives them in different places.

Tested on: A. galli (intestinal roundworm of chicken) larval stage 3; O. dentatum (nodular worm of swine) larval stages 3 and 4
Assay: Activity against Ascaridia galli and Oesophagostomum dentatum larvae in vitro (minimum effective concentration)
Assay type: cell-based
[1] = in vitro, one or more of A. galli L3, O. dentatum L3, L4, threshold 1 μM, read-out: MEC (minimum effective concentration) against one or more of the tested nematodes
[2] = in vitro, two or more of A. galli L3, O. dentatum L3, L4, threshold 1 μM, read-out: MEC (minimum effective concentration) against two or more of the tested nematodes
[3] = in vitro, one or more of A. galli L3, O. dentatum L3, L4, threshold 7 μM, read-out: MEC (minimum effective concentration) against one or more of the tested nematodes
[4] = read-out: MEC (minimum effective concentration) against one or more of the tested nematodes, in vitro, one or more of A. galli L3, O. dentatum L3, L4, threshold 1 μM
[5] = read-out: MEC (minimum effective concentration) against one or more of the tested nematodes, in vitro, one or more of A. galli L3, O. dentatum L3, L4, threshold 7 μM
[6] = read-out: MEC (minimum effective concentration) against two or more of the tested nematodes, in vitro, two or more of A. galli L3, O. dentatum L3, L4, threshold 1 μM

Compound	minimal effective concentration [1] [µM]	minimal effective concentration [2] [µM]	further results
O=[N+]([O-])c1ccc(OC2CCN(C(=S)CCN3CCC(c4ccc(C(F)(F)F)cc4)CC3)CC2)cc1C(F)(F)F [Example 697]	< 1	< 1	
CCOc1cc(OC2CCN(C(=O)CCN3CCN(c4ccc(Cl)cc4F)CC3)CC2)ccc1[N+](=O)[O-] [Example 498]			minimal effective concentration [3]: < 7 µM
O=C(CCCN1CCCN(c2ccc(Cl)cc2)CC1)N1CC[C@@H](Nc2ccc([N+](=O)[O-])c(C(F)(F)F)c2)C1 [Example 777]	< 1		
CC(C)(C)c1ccc(N2CCN(CCC(=O)N3CCC(Nc4cccc(C#N)c4)CC3)CC2)cc1 [Example 351]	< 1		
O=C(CCN1CCN(c2ccc(C(F)(F)F)cn2)CC1)N1CCC(Nc2ccc([N+](=O)[O-])c(C(F)(F)F)c2)CC1 [Example 255]		< 1	
O=C(CCCN1CCN(c2ccc(C(F)(F)F)nc2)CC1)N1CCC(Nc2ccc([N+](=O)[O-])c(C(F)(F)F)c2)CC1 [Example 149, 1-[4-(4-nitro-3-trifluoromethyl-phenylamino)-piperidin-1-yl]-4-[4-(6-trifluoromethyl-pyridin-3-yl)-piperazin-1-yl]-butan-1-one]			minimal effective concentration [4]: < 1 µM; minimal effective concentration [5]: < 7 µM; minimal effective concentration [6]: < 1 µM
C[S+]([O-])c1ccc(NC2CCN(C(=O)CCN3CCN(c4ccc(C(C)(C)C)cc4)CC3)CC2)cc1C(F)(F)F (stereo not drawn) [Example 299]		< 1	
O=C(CCCC1CCN(c2ccc(C(F)(F)F)cc2)CC1)N1CC[C@H](Nc2ccc([N+](=O)[O-])c(C(F)(F)F)c2)C1 [Example 733]	< 1		minimal effective concentration [3]: < 7 µM
O=[N+]([O-])c1ccc(NC2CCN(C(=S)CCN3CCN(C(=S)c4ccc(C(F)(F)F)cc4)CC3)CC2)cc1C(F)(F)F [Example 667]		< 1	
O=C(CC(=O)N1CCN(c2ccc(Cl)c(C(F)(F)F)c2)CC1)N1CCC(Nc2ccc([N+](=O)[O-])c(C(F)(F)F)c2)CC1 [Example 202]		< 1	
CC(CN1CCN(c2ccc(C(C)(C)C)cc2)CC1)C(=O)N1CCC(Nc2ccc([N+](=O)[O-])c(C(F)(F)F)c2)CC1 (stereo not drawn) [Example 130, 3-[4-(4-tert-butyl-phenyl)-piperazin-1-yl]-2-methyl-1-[4-(4-nitro-3-trifluoromethyl-phenylamino)-piperidin-1-yl]-propan-1-one]			minimal effective concentration [4]: < 1 µM; minimal effective concentration [5]: < 7 µM; minimal effective concentration [6]: < 1 µM
CCOc1cc(NC2CCN(C(=O)CCN3CCN(c4ccc(C(F)(F)F)cc4)CC3)CC2)ccc1[N+](=O)[O-] [Example 402]	< 1	< 1	minimal effective concentration [3]: < 7 µM
COc1cc(NC2CCN(C(=O)CCN3CCC(c4ccc(Oc5ccccc5)cc4)CC3)CC2)ccc1[N+](=O)[O-] [Example 376]	< 1		
CC(C)COc1cc(NC2CCN(C(=O)CCN3CCN(c4ccc(F)cc4F)CC3)CC2)ccc1[N+](=O)[O-] [Example 469]			minimal effective concentration [3]: < 7 µM
O=C(CCCC1CCN(c2ccc(Cl)cc2)CC1)N1CC[C@@H](Nc2ccc([N+](=O)[O-])c(C(F)(F)F)c2)C1 [Example 774]	< 1	< 1	
COc1cc(NC2CCN(C(=O)CCN3CCN(c4ccc(C(F)(F)F)cc4)CC3)CC2)ccc1[N+](=O)[O-] [Example 382]		< 1	minimal effective concentration [3]: < 7 µM
CCOc1ccc(N2CCC(OCC(=S)N3CCC(Nc4ccc([N+](=O)[O-])c(C(F)(F)F)c4)CC3)CC2)cc1 [Example 694]	< 1		
CCOc1cc(OC2CCN(C(=O)CCN3CCC(c4ccc(C(C)(C)C)cc4)CC3)CC2)ccc1[N+](=O)[O-] [Example 509]	< 1		
CC(C)(C)c1ccc(N2CCCN(CCCC(=O)N3CC[C@@H](Nc4ccc([N+](=O)[O-])c(C(F)(F)F)c4)C3)CC2)cc1 [Example 778]	< 1	< 1	

Compound	minimal effective concentration [1] [µM]	minimal effective concentration [2] [µM]	further results
CC(C(=O)N1CCC(Nc2ccc([N+](=O)[O-])c(C(F)(F)F)c2)CC1)C(C)N1CCN(c2ccc(C(C)(C)C)cc2)CC1 (stereo not drawn) [Example 588]			minimal effective concentration [6]: < 1 µM
COc1ccc(N2CCN(CCC(=O)N3CCC(Oc4ccc([N+](=O)[O-])c(C(F)(F)F)c4)CC3)CC2)cc1OC [Example 424]		< 1	
CCOc1cc(NC2CCN(C(=O)CCN3CCC(c4ccc(C(C)(C)C)cc4)CC3)CC2)ccc1[N+](=O)[O-] [Example 400]	< 1		minimal effective concentration [3]: < 7 µM
COc1cc(OC2CCN(C(=O)CCN3CCN(c4ccc(C(F)(F)F)cc4)CC3)CC2)ccc1[N+](=O)[O-] [Example 479]			minimal effective concentration [3]: < 7 µM
CCCc1ccc(C2CCN(CCC(=O)N3CCC(Nc4ccc([N+](=O)[O-])c(OCC)c4)CC3)CC2)cc1 [Example 399]			minimal effective concentration [3]: < 7 µM
O=C([C@@H]1CCC[C@H](C(=O)N2CCC(Nc3ccc([N+](=O)[O-])c(C(F)(F)F)c3)CC2)C1)N1CCN(c2ccccc2)CC1 [Example 227]		< 1	
O=[N+]([O-])c1ccc(NC2CCN(S(=O)(=O)CCN3CCN(c4ccc(C(F)(F)F)cc4)CC3)CC2)cc1C(F)(F)F [Example 245]		< 1	
CC(C)(C)c1ccc(N2CCN(CCC(=O)N3CC[C@@H](Nc4ccc([N+](=O)[O-])c(C(F)(F)F)c4)C3)CC2)cc1 [Example 790]	< 1		
CSc1ccc(NC2CCN(C(=O)CCCN3CCN(c4ccc(C(C)(C)C)cc4)CC3)CC2)cc1C(F)(F)F [Example 317]			minimal effective concentration [6]: < 1 µM
O=C(CCCN1CCN(c2nnc(C(F)(F)F)s2)CC1)N1CC[C@@H](Nc2ccc([N+](=O)[O-])c(C(F)(F)F)c2)C1 [Example 784]	< 1		
N#Cc1ccc(NC2CCN(C(=O)CCN3CCCN(c4ccc(Cl)cc4)CC3)CC2)cc1C(F)(F)F [Example 770]			minimal effective concentration [6]: < 1 µM
COc1cc(OC2CCN(C(=O)CCN3CCN(c4ccc(F)cc4F)CC3)CC2)ccc1[N+](=O)[O-] [Example 477]			minimal effective concentration [3]: < 7 µM
O=C(CCN1CCN(c2ccc(F)cc2F)CC1)N1CCC(Nc2ccc([N+](=O)[O-])c(C(F)(F)F)c2)CC1 [Example 370]			minimal effective concentration [3]: < 7 µM
CN(C)S(=O)(=O)c1ccc(NC2CCN(C(=O)CCN3CCN(c4ccc(Cl)cc4)CC3)CC2)cc1C(F)(F)F [Example 346]		< 1	
Cc1cc(NC2CCN(C(=O)CCN3CCN(C(=O)c4cccc(C(F)(F)F)c4)CC3)CC2)ccc1[N+](=O)[O-] [Example 561]		< 1	
CC(C)(C)c1ccc(N2CCN(CCC(=O)N3CCC(Oc4ccc([N+](=O)[O-])c(C(F)(F)F)c4)CC3)CC2)cc1 [Example 220]		< 1	
O=C(CCC1CCN(c2ccc(C(F)(F)F)cc2)CC1)N1CCC(Nc2ccc([N+](=O)[O-])c(C(F)(F)F)c2)CC1 [Example 141, 1-[4-(4-nitro-3-trifluoromethyl-phenylamino)-piperidin-1-yl]-3-[1-(4-trifluoromethyl-phenyl)-piperidin-4-yl]-propan-1-one]			minimal effective concentration [4]: < 1 µM; minimal effective concentration [5]: < 7 µM; minimal effective concentration [6]: < 1 µM
CC(CN1CCN(c2ccc(C(F)(F)F)cc2)CC1)C(=O)N1CCC(Nc2ccc(SC(F)(F)F)cc2)CC1 (stereo not drawn) [Example 661]			minimal effective concentration [6]: < 1 µM
